According to article PMC10649961, “Novel Mitochondria-Targeted Amphiphilic Aminophosphonium Salts and Lipids Nanoparticles: Synthesis, Antitumor Activity and Toxicity” (Nanomaterials, 2023):
Where two headings read alike, the source gives them in different places.

What was measured:
HuTu 80 [1] = conditions: calculated relative to the cell line WI38 (a)
DU-145 [2] = test: cells; conditions: Homo sapiens, DU-145, 48 h, read-out: Cytotoxic Effects (IC50), DU-145, MTT assay, 48 h
SK-OV-3 [3] = test: cells; conditions: Homo sapiens, SK-OV-3, 48 h, read-out: Cytotoxic Effects (IC50)
A549 [4] = test system: A549
MCF-7 [5] = test: cells; conditions: Homo sapiens, MCF7, 48 h, read-out: Cytotoxic Effects (IC50)
PANC-1 [6] = conditions: calculated relative to the cell line WI38 (a)
[7] = test system: Enterococcus faecalis ATCC 29212; test: Antimicrobial activity, serial microdilutions, Ef; type: cell-based; parameters: key to Minimum Inhibitory Concentration (MIC) / Minimum bactericidal and fungicidal concentrations (MBC, MFC): – means non-active; conditions: for MIC: Enterococcus faecalis, ATCC29212, read-out: Minimum Inhibitory Concentration (MIC)
Method in brief: (§1)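 Compounds were serially diluted in broth: Mueller-Hinton for the bacterial strains, Sabouraud for the yeast. Each determination was done in triplicate.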

T98G [8] = test: cells; conditions: Homo sapiens, 48 h, read-out: Cytotoxic Effects (IC50)
T98G [9] = conditions: calculated relative to the cell line WI38 (a)
Hep G2 [10] = test system: Hep G2
[11] = test system: Bacillus cereus ATCC 10702 NCTC 8035; test: Antimicrobial activity, serial microdilutions, Bc; type: cell-based; parameters: key to Minimum bactericidal and fungicidal concentrations (MBC, MFC): – means non-active; conditions: for MIC / MBC: Bacillus cereus; for MIC: read-out: Minimum Inhibitory Concentration (MIC); for MBC: read-out: Minimum bactericidal and fungicidal concentrations (MBC, MFC)
Method in brief: (§2)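 Serial broth microdilution in triplicate; bacteria grown in Mueller-Hinton broth, C. albicans in Sabouraud broth. MRSA-1 is a clinical isolate from a chronic tonsillitis patient.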

PANC-1 [12] = test: cells; conditions: Homo sapiens, PANC-1, 48 h, read-out: Cytotoxic Effects (IC50)
[13] = test system: Staphylococcus aureus ATCC 6538 P FDA 209P; test: Antimicrobial activity, serial microdilutions, Sa; type: cell-based; conditions: Staphylococcus aureus; for MIC: read-out: Minimum Inhibitory Concentration (MIC); for MBC: read-out: Minimum bactericidal and fungicidal concentrations (MBC, MFC)
Method in brief: as §1

M-HeLa [14] = conditions: calculated relative to the cell line WI38 (a)
A549 [15] = test: cells; conditions: Homo sapiens, A549, 48 h, read-out: Cytotoxic Effects (IC50)
[16] = test system: Pseudomonas aeruginosa ATCC 9027; test: Antimicrobial activity, serial microdilutions, Pa; type: cell-based; parameters: key to Minimum Inhibitory Concentration (MIC) / Minimum bactericidal and fungicidal concentrations (MBC, MFC): – means non-active
Method in brief: as §2

PC3 = conditions: calculated relative to the cell line WI38 (a)
[17] = test system: Escherichia coli ATCC 25922; test: Antimicrobial activity, serial microdilutions, Ec; type: cell-based; parameters: key to Minimum Inhibitory Concentration (MIC) / Minimum bactericidal and fungicidal concentrations (MBC, MFC): – means non-active
Method in brief: as §2

MRSA-1 = test: Antimicrobial activity, serial microdilutions, MRSA-1; type: cell-based, S. aureus; conditions: Staphylococcus aureus; for MIC: read-out: Minimum Inhibitory Concentration (MIC); for MBC: read-out: Minimum bactericidal and fungicidal concentrations (MBC, MFC)
Method in brief: as §2

DU-145 [18] = conditions: calculated relative to the cell line WI38 (a)
MRSA-2 = test: Antimicrobial activity, serial microdilutions, MRSA-2; type: cell-based, S. aureus; conditions: Staphylococcus aureus; for MIC: read-out: Minimum Inhibitory Concentration (MIC); for MBC: read-out: Minimum bactericidal and fungicidal concentrations (MBC, MFC)
Method in brief: as §1

[19] = test system: Candida albicans ATCC 10231; test: Antimicrobial activity, serial microdilutions, Ca; type: cell-based; parameters: key to Minimum Inhibitory Concentration (MIC) / Minimum bactericidal and fungicidal concentrations (MBC, MFC): – means non-active; conditions: Ca
Method in brief: as §2

M-HeLa [20] = test: cells; conditions: Homo sapiens, 48 h, read-out: Cytotoxic Effects (IC50)
MCF-7 [21] = conditions: calculated relative to the cell line WI38 (a)
Hep G2 [22] = test: cells; conditions: Homo sapiens, HepG2, 48 h, read-out: Cytotoxic Effects (IC50)
HuTu 80 [23] = test: cells; conditions: Homo sapiens, HuTu80, 48 h, read-out: Cytotoxic Effects (IC50)
SK-OV-3 [24] = conditions: reference normal cell line not marked at the place (ns cells)
[25] = reference normal cell line not marked at the place (ns cells)
[26] = calculated relative to the cell line WI38 (a)

Row | SMILES | selectivity index (SI) (HuTu 80 [1]) | IC50 (DU-145 [2]) | IC50 (SK-OV-3 [3]) | IC50 (MCF-7 [5]) | selectivity index (SI) (PANC-1 [6]) | Minimum bactericidal and fungicidal concentrations (MBC, MFC) [7] | MIC [7] | IC50 (T98G [8]) | selectivity index (SI) (T98G [9]) | MIC ([11]; Bc) | IC50 (PANC-1 [12]) | MIC [13] | MBC [13] | selectivity index (SI) (M-HeLa [14]) | IC50 (A549 [15]) | Minimum Inhibitory Concentration (MIC) [16] | Minimum bactericidal and fungicidal concentrations (MBC, MFC) [16] | selectivity index (SI) (PC3) | Minimum bactericidal and fungicidal concentrations (MBC, MFC) [17] | MIC (MRSA-1) | further results
1 | CCCCCC[P+](c1ccccc1)(c1ccccc1)N(CC)CC [6a, (Diethylamino)(hexyl)diphenylphosphonium iodide] | 277 | 2.6 ± 0.3 µM | 36.8 ± 2.6 µM | 17 ± 1.3 µM | 5.0 | – | 125 ± 11 µM | 18.4 ± 1.5 µM | 1.5 | 31.3 ± 2.3 µM | 5.5 ± 0.4 µM | 62.5 ± 5.5 µM | 125 ± 10 µM | 4.8 | 48.2 ± 3.4 µM | – | – | 6.9 | – | 62.5 ± 5.3 µM | selectivity index (SI) (A549 [4]; [25]): ns (ns—no selectivity); selectivity index (SI) (Hep G2 [10]; [25]): ns (ns—no selectivity); MBC [11]: 500 ± 46 µM; Minimum Inhibitory Concentration (MIC) [17]: –; MBC (MRSA-1): 500 ± 47 µM; selectivity index (SI) (DU-145 [18]): 11; MIC (MRSA-2): 62.5 ± 5.6 µM; MBC (MRSA-2): 62.5 ± 5.6 µM; Minimum Inhibitory Concentration (MIC) [19]: –; Minimum bactericidal and fungicidal concentrations (MBC, MFC) [19]: –; IC50 (M-HeLa [20]): 5.8 ± 0.4 µM; selectivity index (SI) (MCF-7 [21]): 1.6; IC50 (Hep G2 [22]): 34.4 ± 2.4 µM; IC50 (HuTu 80 [23]): 0.1 ± 0.007 µM; selectivity index (SI) (SK-OV-3 [24]): ns (ns—no selectivity)
2 | CCCCCCCC[P+](c1ccccc1)(c1ccccc1)N(CC)CC [6b, (Diethylamino)(octyl)diphenylphosphonium iodide] | 81 | 0.8 ± 0.07 µM | 17.6 ± 1.4 µM | 9.5 ± 0.8 µM | 12 | – | 62.5 ± 5.5 µM | 3.4 ± 0.2 µM | 5.0 | 3.9 ± 0.4 µM | 1.3 ± 0.1 µM | 7.8 ± 0.6 µM | 125 ± 11 µM | 17 | 13 ± 1.1 µM | – | – | 19 | – | 7.8 ± 0.6 µM | selectivity index (SI) (A549 [4]; [26]): 1.2; selectivity index (SI) (Hep G2 [10]; [26]): 1.4; Minimum bactericidal and fungicidal concentrations (MBC, MFC) ([11]; Bc): –; Minimum Inhibitory Concentration (MIC) [17]: –; MBC (MRSA-1): 31.3 ± 2.6 µM; selectivity index (SI) (DU-145 [18]): 20; MIC (MRSA-2): 7.8 ± 0.6 µM; MBC (MRSA-2): 31.3 ± 2.5 µM; Minimum Inhibitory Concentration (MIC) [19]: –; Minimum bactericidal and fungicidal concentrations (MBC, MFC) [19]: –; IC50 (M-HeLa [20]): 0.95 ± 0.08 µM; selectivity index (SI) (MCF-7 [21]): 1.7; IC50 (Hep G2 [22]): 11.6 ± 0.9 µM; IC50 (HuTu 80 [23]): 0.2 ± 0.01 µM; selectivity index (SI) (SK-OV-3 [24]): ns (ns—no selectivity)
3 | CCCCCCCC[P+](c1ccccc1)(c1ccccc1)c1ccccc1 [compound 8, Octyltriphenylphosphonium iodide, reference compound] | 102 | 0.4 ± 0.03 µM | 9.8 ± 0.7 µM | 4.2 ± 0.3 µM | 31 | – | 15.6 ± 1.2 µM | 0.6 ± 0.05 µM | 15 | 0.9 ± 0.07 µM | 0.3 ± 0.02 µM | 0.9 ± 0.07 µM | 62.5 ± 5.3 µM | 20 | 8.7 ± 0.7 µM | – | – | 23 | – | 1.9 ± 0.1 µM | selectivity index (SI) (A549 [4]; [26]): 1.1; selectivity index (SI) (Hep G2 [10]; [26]): 5.8; MBC [11]: 500 ± 47 µM; MIC ([17]; Escherichia coli, ATCC25922, read-out: Minimum Inhibitory Concentration (MIC)): 500 ± 47 µM; MBC (MRSA-1): 15.6 ± 1.2 µM; selectivity index (SI) (DU-145 [18]): 23; MIC (MRSA-2): 3.9 ± 0.3 µM; MBC (MRSA-2): 15.6 ± 1.3 µM; Minimum Inhibitory Concentration (MIC) [19]: –; Minimum bactericidal and fungicidal concentrations (MBC, MFC) [19]: –; IC50 (M-HeLa [20]): 0.45 ± 0.04 µM; selectivity index (SI) (MCF-7 [21]): 2.2; IC50 (Hep G2 [22]): 1.6 ± 0.1 µM; IC50 (HuTu 80 [23]): 0.09 ± 0.006 µM; selectivity index (SI) (SK-OV-3 [24]): ns (ns—no selectivity)
